Reference: ChEMBL document CHEMBL1201862, “PubChem BioAssay data set” (2004)
Calls of active or inactive are those of the source.

Tests used:
BJ = experiment: growth inhibition of engineered Ras-driven BJ cells – cell-based, alamar blue fluorescence, cherrypicked samples, dose response (AID 2631); assay type: functional; details: Homo sapiens;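 note: confirmatory dose-response assay in RAS-dependent BJ fibroblasts engineered with TERT, LT and ST, with cytotoxicity read by fluorescence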
Mucolipin-3 = molecular target: T1, Mucolipin-3 (Homo sapiens, UniProt Q8TDD5); experiment: Fluorescence counterscreen assay for […] agonists: dose response cell-based high-throughput screening assay to identify agonists of the transient receptor potential channel ML3 (TRPML3). [Related pubchem assays: 1424, 1448 ]; assay type: functional
T1 sequence (Q8TDD5 whole entry): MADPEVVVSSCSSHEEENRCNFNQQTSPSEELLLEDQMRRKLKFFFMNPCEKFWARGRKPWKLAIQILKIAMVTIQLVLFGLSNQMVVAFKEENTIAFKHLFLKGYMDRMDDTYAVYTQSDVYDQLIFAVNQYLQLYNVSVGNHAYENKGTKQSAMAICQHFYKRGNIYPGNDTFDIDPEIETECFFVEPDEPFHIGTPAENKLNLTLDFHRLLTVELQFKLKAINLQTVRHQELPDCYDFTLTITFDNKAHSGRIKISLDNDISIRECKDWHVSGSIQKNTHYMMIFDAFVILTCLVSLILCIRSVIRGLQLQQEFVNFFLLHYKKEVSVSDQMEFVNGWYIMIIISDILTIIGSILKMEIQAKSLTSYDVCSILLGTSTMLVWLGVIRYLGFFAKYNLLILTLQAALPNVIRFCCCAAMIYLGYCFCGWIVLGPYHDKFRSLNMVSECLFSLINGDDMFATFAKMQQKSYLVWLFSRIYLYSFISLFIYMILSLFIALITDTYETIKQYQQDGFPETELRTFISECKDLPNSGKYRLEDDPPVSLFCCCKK

Ion channel NompC = Ion channel NompC (Danio rerio, UniProt Q7T1G6); experiment: Dose response cell-based high-throughput screening assay for agonists of the transient receptor potential channel N1 (TRPN1). [Related pubchem assays (depositor defined):AID1424, AID1448]; assay type: functional
Coagulation factor XII = molecular target: T2, Coagulation factor XII (Homo sapiens, UniProt P00748); experiment: Factor XIIa Dose Response Confirmation from Single Well HTS. [Related pubchem assays (depositor defined):AID701]; assay type: functional
T2 sequence (P00748 whole entry): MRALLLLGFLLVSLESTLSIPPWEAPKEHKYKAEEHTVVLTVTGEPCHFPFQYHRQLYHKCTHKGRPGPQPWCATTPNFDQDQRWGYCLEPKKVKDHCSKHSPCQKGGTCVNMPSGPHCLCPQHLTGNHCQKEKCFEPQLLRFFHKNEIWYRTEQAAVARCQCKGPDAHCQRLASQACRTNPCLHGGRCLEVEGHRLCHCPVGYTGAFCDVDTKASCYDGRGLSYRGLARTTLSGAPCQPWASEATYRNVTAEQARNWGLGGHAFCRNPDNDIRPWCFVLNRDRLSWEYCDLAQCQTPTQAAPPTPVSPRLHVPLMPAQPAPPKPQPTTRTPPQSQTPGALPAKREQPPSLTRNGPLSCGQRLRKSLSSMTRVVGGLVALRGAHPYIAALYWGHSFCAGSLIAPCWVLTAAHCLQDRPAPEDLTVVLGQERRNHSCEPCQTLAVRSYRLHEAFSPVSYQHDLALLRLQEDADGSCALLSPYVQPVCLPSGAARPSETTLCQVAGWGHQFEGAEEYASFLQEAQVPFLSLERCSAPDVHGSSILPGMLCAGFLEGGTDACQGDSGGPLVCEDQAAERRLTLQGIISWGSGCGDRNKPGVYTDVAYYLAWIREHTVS

Hexokinase-1 = Hexokinase-1 (Homo sapiens, UniProt P19367); experiment: HK1 enzyme activation by HKDC1 hits – biochemical, selectivity assay for HKDC1 activator project, dose response (AID 504762); assay type: functional
cells = assay type: functional
Hexokinase HKDC1 = molecular target: T3, Hexokinase HKDC1 (Homo sapiens, UniProt Q2TB90); experiment: activation of HKDC1 glucose phosphorylation – biochemical, W721R variant, dose response (AID 504730); assay type: functional
T3 sequence (Q2TB90 whole entry): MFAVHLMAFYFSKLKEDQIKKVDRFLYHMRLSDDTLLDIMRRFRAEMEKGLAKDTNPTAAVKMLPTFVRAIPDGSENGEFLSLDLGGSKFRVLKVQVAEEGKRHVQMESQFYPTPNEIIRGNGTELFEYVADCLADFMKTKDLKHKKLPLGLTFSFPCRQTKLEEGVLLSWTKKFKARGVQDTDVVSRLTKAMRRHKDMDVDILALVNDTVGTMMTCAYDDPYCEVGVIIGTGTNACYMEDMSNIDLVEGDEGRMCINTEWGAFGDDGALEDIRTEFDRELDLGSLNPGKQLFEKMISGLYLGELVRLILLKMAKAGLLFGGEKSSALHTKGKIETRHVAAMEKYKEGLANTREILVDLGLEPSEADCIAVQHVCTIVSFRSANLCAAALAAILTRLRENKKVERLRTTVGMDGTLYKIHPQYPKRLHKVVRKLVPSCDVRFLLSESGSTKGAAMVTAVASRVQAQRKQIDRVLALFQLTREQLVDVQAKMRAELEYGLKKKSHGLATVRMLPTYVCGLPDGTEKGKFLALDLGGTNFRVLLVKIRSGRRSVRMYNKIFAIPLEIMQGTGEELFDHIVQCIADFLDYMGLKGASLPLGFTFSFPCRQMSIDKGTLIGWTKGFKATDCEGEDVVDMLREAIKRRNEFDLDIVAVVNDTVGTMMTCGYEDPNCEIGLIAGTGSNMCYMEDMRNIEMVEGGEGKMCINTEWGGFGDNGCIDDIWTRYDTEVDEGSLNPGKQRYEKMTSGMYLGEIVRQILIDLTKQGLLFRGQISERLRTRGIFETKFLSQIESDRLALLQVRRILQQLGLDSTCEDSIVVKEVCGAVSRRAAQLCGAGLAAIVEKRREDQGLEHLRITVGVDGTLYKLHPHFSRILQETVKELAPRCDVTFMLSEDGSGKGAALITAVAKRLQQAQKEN

[1] = molecular target: T4, Heat shock factor protein 1 (Mus musculus, UniProt P38532); experiment: enhancement of HSF1-driven luciferase signal – cell-based, NIH3T3, luminescence, dose retest, confirmation (AID 435004); assay type: functional;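 note: stress induced by proteasome inhibitor MG132 added 30 min after compound; luciferase reporter driven by HSF1 response element in NIH3T3 cells; actives raise luminescence as potentiators of the MG132 stress response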
T4 sequence (P38532 whole entry): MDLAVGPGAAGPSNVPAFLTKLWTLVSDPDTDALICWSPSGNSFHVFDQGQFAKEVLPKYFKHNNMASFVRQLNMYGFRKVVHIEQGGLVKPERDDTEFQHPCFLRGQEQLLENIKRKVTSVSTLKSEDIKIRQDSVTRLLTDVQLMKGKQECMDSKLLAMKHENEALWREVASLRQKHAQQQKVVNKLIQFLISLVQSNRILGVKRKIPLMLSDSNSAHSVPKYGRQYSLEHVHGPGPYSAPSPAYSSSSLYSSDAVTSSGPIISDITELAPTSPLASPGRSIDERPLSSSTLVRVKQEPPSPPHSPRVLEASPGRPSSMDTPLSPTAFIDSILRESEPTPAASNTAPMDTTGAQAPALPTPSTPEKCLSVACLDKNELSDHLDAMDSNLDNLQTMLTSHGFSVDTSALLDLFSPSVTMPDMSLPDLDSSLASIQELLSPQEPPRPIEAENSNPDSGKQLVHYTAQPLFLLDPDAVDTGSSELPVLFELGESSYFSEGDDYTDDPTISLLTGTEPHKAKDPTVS

[2] = molecular target: UDP-galactopyranose mutase (Mycobacterium tuberculosis, UniProt P9WIQ1); experiment: Inhibitors of Mycobacterium tuberculosis UDP-galactopyranose mutase (UGM) enzyme Measured in Biochemical System Using Plate Reader - 2105-02_Inhibitor_Dose_CherryPick_Activity. [Related pubchem assays (depositor defined):AID504439]
Cannabinoid receptor 2 [3] = molecular target: T5, Cannabinoid receptor 2 (Homo sapiens, UniProt P34972); experiment: SAR analysis of antagonists of the Cannabinoid Receptor 2 using an Image-Based Assay - Set 3. [Related pubchem assays (depositor defined):AID2013, AID2026]; assay type: functional
[4] = molecular target: T6, G-protein coupled receptor 35 (Homo sapiens, UniProt Q9HC97); experiment: SAR analysis of Agonists of the GPR35 Receptor using an Image-Based Assay - Set 4. [Related pubchem assays (depositor defined):AID2013, AID2026]; assay type: functional
Cannabinoid receptor 1 [5] = molecular target: T7, Cannabinoid receptor 1 (Homo sapiens, UniProt P21554); experiment: SAR analysis of agonists of the Cannabinoid Receptor 1 using an Image-Based Assay - Set 4. [Related pubchem assays (depositor defined):AID2013, AID2026]; assay type: functional
[6] = molecular target: T6, G-protein coupled receptor 35; experiment: SAR analysis of Antagonists of the GPR35 Receptor using an Image-Based Assay - Set 6. [Related pubchem assays (depositor defined):AID2013, AID2026]; assay type: functional
Cannabinoid receptor 1 [7] = molecular target: T7, Cannabinoid receptor 1; experiment: SAR analysis of antagonists of the Cannabinoid Receptor 1 using an Image-Based Assay - Set 4. [Related pubchem assays (depositor defined):AID2013, AID2026]; assay type: functional
[8] = molecular target: G-protein coupled receptor 55 (Homo sapiens, UniProt Q9Y2T6); experiment: SAR Analysis of Selective Antagonists of GPR55 using an Image-Based Assay - Set 4. [Related pubchem assays (depositor defined):AID2013, AID2026]; assay type: functional;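 note: antagonism of response to 5 µM lysophosphatidylinositol agonist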
Cannabinoid receptor 2 [9] = molecular target: T5, Cannabinoid receptor 2; experiment: SAR analysis of agonists of the Cannabinoid Receptor 2 using an Image-Based Assay - Set 3. [Related pubchem assays (depositor defined):AID2013, AID2026]; assay type: functional
[10] = molecular target: Glucose-6-phosphate 1-dehydrogenase (Homo sapiens, UniProt P11413); experiment: inhibition of Homo sapiens G6PD, dose series – biochemical, fluorescence, selectivity assay for P. falciparum G6PD inhibitor project, dose response (AID 504792); assay type: functional
[11] = molecular target: Kappa-type opioid receptor (Homo sapiens, UniProt P41145); experiment: SAR analysis of small molecule agonists of the kappa opioid receptor via a luminescent beta-arrestin assay - Set 3. [Related pubchem assays (depositor defined):AID1777, AID1785, AID1786, AID1966, AID2133, AID2136, AID2284, AID2500]; assay type: functional

T7 sequence (P21554 whole entry): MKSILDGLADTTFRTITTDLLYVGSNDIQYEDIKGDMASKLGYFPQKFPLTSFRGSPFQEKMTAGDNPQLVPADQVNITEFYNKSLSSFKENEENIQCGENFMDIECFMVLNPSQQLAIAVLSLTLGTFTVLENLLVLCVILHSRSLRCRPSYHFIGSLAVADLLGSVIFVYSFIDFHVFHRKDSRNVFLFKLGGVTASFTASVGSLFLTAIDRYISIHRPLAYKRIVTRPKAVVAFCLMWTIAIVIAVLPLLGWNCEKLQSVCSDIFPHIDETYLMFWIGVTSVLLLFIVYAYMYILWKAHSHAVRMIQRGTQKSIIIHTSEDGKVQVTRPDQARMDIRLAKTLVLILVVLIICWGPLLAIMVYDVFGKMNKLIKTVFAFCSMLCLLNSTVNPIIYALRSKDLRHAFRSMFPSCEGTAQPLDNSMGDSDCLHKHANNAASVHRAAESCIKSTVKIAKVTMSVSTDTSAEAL
T6 sequence (Q9HC97 whole entry): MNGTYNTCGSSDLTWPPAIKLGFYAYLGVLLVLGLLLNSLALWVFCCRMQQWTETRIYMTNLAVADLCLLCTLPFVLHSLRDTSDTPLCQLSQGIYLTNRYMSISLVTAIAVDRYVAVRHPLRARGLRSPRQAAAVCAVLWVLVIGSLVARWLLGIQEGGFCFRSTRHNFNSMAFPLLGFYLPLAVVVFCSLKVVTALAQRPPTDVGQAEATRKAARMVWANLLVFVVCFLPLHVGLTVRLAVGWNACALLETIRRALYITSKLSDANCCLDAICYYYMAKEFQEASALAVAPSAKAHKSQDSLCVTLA
T5 sequence (P34972 whole entry): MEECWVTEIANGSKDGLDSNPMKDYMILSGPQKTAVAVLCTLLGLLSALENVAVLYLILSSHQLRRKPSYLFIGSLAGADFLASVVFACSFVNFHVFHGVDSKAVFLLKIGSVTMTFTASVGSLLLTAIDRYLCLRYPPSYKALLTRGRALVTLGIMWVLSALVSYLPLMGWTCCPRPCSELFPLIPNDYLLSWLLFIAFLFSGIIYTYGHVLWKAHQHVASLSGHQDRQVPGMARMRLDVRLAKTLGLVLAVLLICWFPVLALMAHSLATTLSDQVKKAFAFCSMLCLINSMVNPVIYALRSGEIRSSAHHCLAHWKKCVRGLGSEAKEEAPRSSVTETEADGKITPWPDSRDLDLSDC
Sequence of Ion channel NompC (Q7T1G6 whole entry): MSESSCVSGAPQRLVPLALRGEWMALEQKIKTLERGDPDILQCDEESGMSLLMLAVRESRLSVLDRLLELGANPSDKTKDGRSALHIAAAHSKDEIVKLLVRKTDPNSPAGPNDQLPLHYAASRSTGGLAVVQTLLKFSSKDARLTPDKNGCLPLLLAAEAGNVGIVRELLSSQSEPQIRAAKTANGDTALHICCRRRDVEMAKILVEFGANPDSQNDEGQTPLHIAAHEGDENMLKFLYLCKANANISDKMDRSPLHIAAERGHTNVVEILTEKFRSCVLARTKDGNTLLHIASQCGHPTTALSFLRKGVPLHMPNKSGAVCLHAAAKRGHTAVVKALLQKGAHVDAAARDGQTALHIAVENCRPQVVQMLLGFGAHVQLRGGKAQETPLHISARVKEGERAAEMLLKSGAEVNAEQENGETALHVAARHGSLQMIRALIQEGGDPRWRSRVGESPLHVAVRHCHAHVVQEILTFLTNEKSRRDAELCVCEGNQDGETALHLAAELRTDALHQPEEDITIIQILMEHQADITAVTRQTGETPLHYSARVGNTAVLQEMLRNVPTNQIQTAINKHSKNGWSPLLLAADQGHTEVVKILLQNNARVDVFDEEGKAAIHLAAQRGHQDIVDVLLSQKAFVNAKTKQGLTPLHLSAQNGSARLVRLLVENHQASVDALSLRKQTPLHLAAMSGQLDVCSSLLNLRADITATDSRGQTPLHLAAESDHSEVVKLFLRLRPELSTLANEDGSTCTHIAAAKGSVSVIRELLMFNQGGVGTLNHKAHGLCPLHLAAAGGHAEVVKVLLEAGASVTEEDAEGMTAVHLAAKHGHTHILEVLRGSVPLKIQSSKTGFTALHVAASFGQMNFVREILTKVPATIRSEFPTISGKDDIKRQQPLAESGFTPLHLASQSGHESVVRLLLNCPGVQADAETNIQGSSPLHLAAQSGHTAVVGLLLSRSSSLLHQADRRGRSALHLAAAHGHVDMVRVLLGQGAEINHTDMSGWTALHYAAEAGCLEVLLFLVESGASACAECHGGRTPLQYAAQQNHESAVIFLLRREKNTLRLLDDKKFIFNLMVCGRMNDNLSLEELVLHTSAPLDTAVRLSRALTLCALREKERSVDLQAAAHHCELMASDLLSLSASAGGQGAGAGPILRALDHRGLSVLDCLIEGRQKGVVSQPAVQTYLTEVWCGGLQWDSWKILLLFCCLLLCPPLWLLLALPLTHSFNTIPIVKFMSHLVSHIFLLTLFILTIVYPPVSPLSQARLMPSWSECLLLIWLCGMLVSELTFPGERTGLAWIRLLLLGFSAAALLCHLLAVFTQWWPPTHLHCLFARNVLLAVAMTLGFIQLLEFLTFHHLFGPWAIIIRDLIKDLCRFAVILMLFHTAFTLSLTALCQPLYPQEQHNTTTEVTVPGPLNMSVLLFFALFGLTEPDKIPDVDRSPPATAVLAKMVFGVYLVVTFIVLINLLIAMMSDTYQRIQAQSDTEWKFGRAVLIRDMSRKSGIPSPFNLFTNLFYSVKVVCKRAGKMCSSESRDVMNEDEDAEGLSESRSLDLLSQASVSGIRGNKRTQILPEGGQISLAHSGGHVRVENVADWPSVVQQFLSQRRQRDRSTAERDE
Sequence of G-protein coupled receptor 55 (Q9Y2T6 whole entry): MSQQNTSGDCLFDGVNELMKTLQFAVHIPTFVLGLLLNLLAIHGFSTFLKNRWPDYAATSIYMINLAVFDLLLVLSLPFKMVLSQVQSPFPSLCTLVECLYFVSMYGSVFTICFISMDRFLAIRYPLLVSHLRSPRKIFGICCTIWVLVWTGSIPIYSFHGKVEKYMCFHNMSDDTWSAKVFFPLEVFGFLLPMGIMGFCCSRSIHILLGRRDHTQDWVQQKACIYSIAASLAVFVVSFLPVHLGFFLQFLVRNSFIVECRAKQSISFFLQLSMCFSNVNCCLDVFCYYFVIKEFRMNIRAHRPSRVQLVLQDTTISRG
Sequence of Hexokinase-1 (P19367 whole entry): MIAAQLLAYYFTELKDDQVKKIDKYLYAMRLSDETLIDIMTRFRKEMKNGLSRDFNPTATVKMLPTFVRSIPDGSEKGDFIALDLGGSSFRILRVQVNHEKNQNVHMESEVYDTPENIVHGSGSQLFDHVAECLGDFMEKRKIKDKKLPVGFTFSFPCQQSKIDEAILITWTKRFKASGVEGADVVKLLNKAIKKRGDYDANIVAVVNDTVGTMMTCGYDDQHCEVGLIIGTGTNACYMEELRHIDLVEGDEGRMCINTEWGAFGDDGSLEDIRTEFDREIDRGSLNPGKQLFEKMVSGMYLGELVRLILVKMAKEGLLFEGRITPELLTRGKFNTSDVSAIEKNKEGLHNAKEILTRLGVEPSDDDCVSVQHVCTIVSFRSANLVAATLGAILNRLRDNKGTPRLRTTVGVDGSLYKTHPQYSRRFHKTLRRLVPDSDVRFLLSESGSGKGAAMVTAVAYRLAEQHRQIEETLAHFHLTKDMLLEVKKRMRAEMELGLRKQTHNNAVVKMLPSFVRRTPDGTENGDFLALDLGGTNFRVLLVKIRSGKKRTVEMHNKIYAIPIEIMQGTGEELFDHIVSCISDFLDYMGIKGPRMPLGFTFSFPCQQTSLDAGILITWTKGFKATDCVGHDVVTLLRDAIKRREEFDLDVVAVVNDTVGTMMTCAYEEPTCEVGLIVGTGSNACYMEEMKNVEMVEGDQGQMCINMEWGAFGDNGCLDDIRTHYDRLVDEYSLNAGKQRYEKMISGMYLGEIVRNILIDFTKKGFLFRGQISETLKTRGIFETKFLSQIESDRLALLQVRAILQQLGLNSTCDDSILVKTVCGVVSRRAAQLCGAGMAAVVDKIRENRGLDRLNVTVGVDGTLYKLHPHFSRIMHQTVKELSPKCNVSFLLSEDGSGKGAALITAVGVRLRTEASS
Sequence of UDP-galactopyranose mutase (P9WIQ1 whole entry): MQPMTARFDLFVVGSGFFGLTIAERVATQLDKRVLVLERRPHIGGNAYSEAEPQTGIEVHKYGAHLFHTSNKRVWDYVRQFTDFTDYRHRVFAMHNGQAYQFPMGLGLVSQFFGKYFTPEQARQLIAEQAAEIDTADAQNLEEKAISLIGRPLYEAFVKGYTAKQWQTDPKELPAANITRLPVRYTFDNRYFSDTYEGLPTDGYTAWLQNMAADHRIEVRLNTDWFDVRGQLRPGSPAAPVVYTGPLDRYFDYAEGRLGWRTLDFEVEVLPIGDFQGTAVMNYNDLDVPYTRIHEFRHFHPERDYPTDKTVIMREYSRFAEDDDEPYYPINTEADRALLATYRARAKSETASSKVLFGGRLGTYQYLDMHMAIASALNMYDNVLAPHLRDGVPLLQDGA
Sequence of Glucose-6-phosphate 1-dehydrogenase (P11413 whole entry): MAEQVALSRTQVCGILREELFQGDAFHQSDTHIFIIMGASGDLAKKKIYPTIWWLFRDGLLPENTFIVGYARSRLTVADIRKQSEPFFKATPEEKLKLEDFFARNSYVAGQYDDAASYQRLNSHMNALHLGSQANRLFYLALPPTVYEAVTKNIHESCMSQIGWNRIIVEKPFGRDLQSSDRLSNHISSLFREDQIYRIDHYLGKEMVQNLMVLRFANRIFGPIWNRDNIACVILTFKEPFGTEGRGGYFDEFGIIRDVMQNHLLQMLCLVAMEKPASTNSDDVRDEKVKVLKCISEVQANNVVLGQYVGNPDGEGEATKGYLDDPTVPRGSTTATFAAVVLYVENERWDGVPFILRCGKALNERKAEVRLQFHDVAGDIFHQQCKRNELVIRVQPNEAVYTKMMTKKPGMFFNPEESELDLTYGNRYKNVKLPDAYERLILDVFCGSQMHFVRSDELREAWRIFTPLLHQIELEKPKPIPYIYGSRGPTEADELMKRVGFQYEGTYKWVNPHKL

Q: Which EC50 (BJ) does the source give for `COc1ccc2[nH]c3c(NCCC4=CCCCC4)ncnc3c2c1` here?
A: > 133 µM (inactive)

Q: And the EC50 (Mucolipin-3)?
A: > 29.9 µM (not active)

Q: What about the EC50 (Ion channel NompC) of the same compound?
A: > 29.9 µM (inactive)

Q: With `COc1cc(OC)cc(-c2nnc(SCc3cccc(C(=O)O)c3)o2)c1` as the compound, how does the IC50 (Coagulation factor XII) read?
A: > 50 µM (inactive)

Q: Which results are given for `CCOC(=O)Cn1c2ccc(F)cc2c2nc(C)sc21`?
A: EC50 (Hexokinase-1): 56.2 µM (inactive); IC50 (cells): 14.2 µM (active); EC50 (Hexokinase HKDC1): 59.1 µM (inactive)

Q: For `Cc1cc2nc3c(=O)n(CCc4ccccc4)c(=O)[nH]c3nc2cc1N`, which EC50 [1] is on record?
A: > 260 µM (inactive)

Q: And the AC50 [2]?
A: 2.29 µM (active)

Q: And the EC50 (Mucolipin-3)?
A: 6.23 µM (active)

Q: What about the EC50 (Ion channel NompC) of the same compound?
A: 3.55 µM (active)

Q: For `Cc1nc(N2CCN(C(=O)c3cccs3)CC2)c2c3c(sc2n1)CCCC3`, which IC50 (Cannabinoid receptor 2 [3]) is on record?
A: > 32 µM (inactive)

Q: And the EC50 [4]?
A: > 32 µM (inactive)

Q: And the EC50 (Cannabinoid receptor 1 [5])?
A: > 32 µM (inactive)

Q: And the IC50 [6]?
A: > 32 µM (inactive)

Q: What about the IC50 (Cannabinoid receptor 1 [7]) of the same compound?
A: 3.94 µM (active)

Q: What about the IC50 [8] of the same compound?
A: 4.13 µM (active)

Q: And the EC50 (Cannabinoid receptor 2 [9])?
A: > 32 µM (inactive)

Q: What does the source list for `O=C(Nc1ccc(N2CCCC2)cc1)c1cccc(-c2cc3ccccc3oc2=O)c1`?
A: EC50 (Hexokinase-1): > 80 µM (inactive); IC50 [10]: > 80 µM (inactive); EC50 (Hexokinase HKDC1): 13.6 µM (active)

Q: For `O=C(c1cn(-c2ccccc2)nc1-c1ccncc1)n1nnc2ccccc21`, which IC50 (Coagulation factor XII) is on record?
A: 0.973 µM (active)

Q: With `COc1ccc(-n2cc3c(-c4cccc(Br)c4)nnc(C)c3n2)cc1` as the compound, how does the IC50 (Cannabinoid receptor 2 [3]) read?
A: 5.4 µM (active)

Q: And the EC50 [4]?
A: > 32 µM (inactive)

Q: And the EC50 (Cannabinoid receptor 1 [5])?
A: > 32 µM (inactive)

Q: What about the IC50 [6] of the same compound?
A: > 32 µM (inactive)

Q: And the IC50 (Cannabinoid receptor 1 [7])?
A: 0.946 µM (active)

Q: And the IC50 [8]?
A: 8.04 µM (active)

Q: What about the EC50 (Cannabinoid receptor 2 [9]) of the same compound?
A: > 32 µM (inactive)

Q: For `Brc1ccc(CSc2nnc(-c3ccccn3)n2Cc2ccccc2)cc1`, which EC50 [11] is on record?
A: 4.06 µM (active)
